Paper PMC4740573 (Clinical Drug Investigation, 2015)

Columns and labels:
[1] = tested on: activated partial thromboplastin time; test: Activated partial thromboplastin time; assay type: in vivo, human; settings: for LS mean aPTT at 2 h after dosing: ANCOVA; for Activated partial thromboplastin time A max / Activated partial thromboplastin time A min / Activated partial thromboplastin time AUEτ: mean ± SD; for Activated partial thromboplastin time T max: median (minimum, maximum)
thrombin generation = test: Technothrombin thrombin generation assay; assay type: in vivo, human; settings: for Endogenous thrombin potential A max / Endogenous thrombin potential A min / Lag time A max / Lag time A min / Peak thrombin A max / Peak thrombin A min / Time to peak A max / Time to peak A min / Velocity A max / Velocity A min: mean ± SD
Safety assessment = assay type: in vivo, human; settings: healthy adult subjects
[2] = cited from earlier work
[3] = Plasma pharmacokinetics in healthy subjects; settings: for T max: median (minimum, maximum); for AUC: AUCτ, 24 h dosing interval; for Cmax: C max, healthy subjects
[4] = day 4, edoxaban after switching from dabigatran etexilate (treatment 3)
[5] = day 4, edoxaban after switching from rivaroxaban (treatment 2)
[6] = day 4, edoxaban alone (treatment 1)
[7] = edoxaban after switching from dabigatran etexilate, day 4 (treatment 3)
[8] = edoxaban after switching from rivaroxaban, day 4 (treatment 2)
[9] = edoxaban alone, day 1 (treatment 1)
[10] = edoxaban alone, day 4 (treatment 1)

CN1CCc2nc(C(=O)N[C@@H]3C[C@@H](C(=O)N(C)C)CC[C@@H]3NC(=O)C(=O)Nc3ccc(Cl)cn3)sc2C1 [Edoxaban, edoxaban]
LS mean aPTT at 2 h after dosing ([1]; day 4, after switching from dabigatran etexilate to edoxaban (treatment 3)): 47.6 s
Activated partial thromboplastin time A max [1, 4]: 50.8 ± 8.92 s
Activated partial thromboplastin time A min [1, 4]: 30.0 ± 2.20 s
Activated partial thromboplastin time AUEτ [1, 4]: 863 ± 87.3 s·h
Activated partial thromboplastin time T max [1, 4]: 1.00 (0.50, 3.00) h
Activated partial thromboplastin time A max [1, 5]: 36.5 ± 3.94 s
Activated partial thromboplastin time A min [1, 5]: 28.4 ± 2.13 s
Activated partial thromboplastin time AUEτ [1, 5]: 738 ± 58.6 s·h
Activated partial thromboplastin time T max [1, 5]: 1.00 (0.50, 4.00) h
LS mean aPTT at 2 h after dosing [1, 6]: 35.0 s
Activated partial thromboplastin time A max [1, 6]: 35.9 ± 3.15 s
Activated partial thromboplastin time A min [1, 6]: 27.7 ± 1.70 s
Activated partial thromboplastin time AUEτ [1, 6]: 725 ± 48.8 s·h
Activated partial thromboplastin time T max [1, 6]: 1.50 (0.50, 4.00) h
time to peak effect on aPTT ([1]; edoxaban alone (treatment 1), return to baseline by 24 h): 1 to 2 h
ETP Amax (thrombin generation; day 4, continual edoxaban treatment (treatment 1)): 3644 ± 434 mN·min
Endogenous thrombin potential A max (thrombin generation; [7]): 3338 ± 575 nM·min
Endogenous thrombin potential A min (thrombin generation; [7]): 1239 ± 828 nM·min
Lag time A max (thrombin generation; [7]): 55.3 ± 16.2 min
Lag time A min (thrombin generation; [7]): 20.5 ± 3.60 min
Peak thrombin A max (thrombin generation; [7]): 302 ± 77.0 nM
Peak thrombin A min (thrombin generation; [7]): 48.9 ± 25.2 nM
Time to peak A max (thrombin generation; [7]): 74.0 ± 12.4 min
Time to peak A min (thrombin generation; [7]): 27.5 ± 7.94 min
Velocity A max (thrombin generation; [7]): 46.5 ± 25.7 nM/min
Velocity A min (thrombin generation; [7]): 2.13 ± 1.35 nM/min
Endogenous thrombin potential A max (thrombin generation; [8]): 3680 ± 462 nM·min
Endogenous thrombin potential A min (thrombin generation; [8]): 1506 ± 798 nM·min
Lag time A max (thrombin generation; [8]): 39.9 ± 9.96 min
Lag time A min (thrombin generation; [8]): 15.8 ± 3.54 min
Peak thrombin A max (thrombin generation; [8]): 324 ± 123 nM
Peak thrombin A min (thrombin generation; [8]): 49.2 ± 31.9 nM
Time to peak A max (thrombin generation; [8]): 59.4 ± 14.6 min
Time to peak A min (thrombin generation; [8]): 22.0 ± 5.15 min
Velocity A max (thrombin generation; [8]): 67.4 ± 46.6 nM/min
Velocity A min (thrombin generation; [8]): 3.04 ± 2.88 nM/min
Endogenous thrombin potential A max (thrombin generation; [9]): 3635 ± 432 nM·min
Endogenous thrombin potential A min (thrombin generation; [9]): 1520 ± 754 nM·min
Lag time A max (thrombin generation; [9]): 38.3 ± 8.59 min
Lag time A min (thrombin generation; [9]): 15.8 ± 2.25 min
Peak thrombin A max (thrombin generation; [9]): 323 ± 98.1 nM
Peak thrombin A min (thrombin generation; [9]): 45.7 ± 25.5 nM
Time to peak A max (thrombin generation; [9]): 58.6 ± 12.6 min
Time to peak A min (thrombin generation; [9]): 22.2 ± 4.13 min
Velocity A max (thrombin generation; [9]): 61.4 ± 31.3 nM/min
Velocity A min (thrombin generation; [9]): 2.62 ± 1.92 nM/min
Endogenous thrombin potential A max (thrombin generation; [10]): 3644 ± 434 nM·min
Endogenous thrombin potential A min (thrombin generation; [10]): 1474 ± 755 nM·min
Lag time A max (thrombin generation; [10]): 37.8 ± 7.09 min
Lag time A min (thrombin generation; [10]): 16.9 ± 2.41 min
Peak thrombin A max (thrombin generation; [10]): 315 ± 90.6 nM
Peak thrombin A min (thrombin generation; [10]): 43.4 ± 25.1 nM
Time to peak A max (thrombin generation; [10]): 58.5 ± 12.2 min
Time to peak A min (thrombin generation; [10]): 23.7 ± 4.29 min
Velocity A max (thrombin generation; [10]): 58.4 ± 31.9 nM/min
Velocity A min (thrombin generation; [10]): 2.40 ± 1.89 nM/min
tolerability (Safety assessment): well tolerated
oral bioavailability [2]: approximately 62%
terminal elimination half-life [2]: 10 to 14 h
time to peak plasma concentration and peak antithrombotic effect ([2]; oral): 1 to 2 h
T max ([3]; edoxaban day 4 after switching from dabigatran etexilate (treatment 3)): 1.00 (0.50, 3.00) h
T max ([3]; edoxaban day 4 after switching from rivaroxaban (treatment 2)): 1.00 (0.50, 2.00) h
Tmax ([3]; human, in vivo, 60 mg): 1 h
AUC ([3]; human, in vivo, 60 mg, edoxaban alone, day 1 (treatment 1), mean ± SD): 1780 ± 319 ng·h/mL
AUC ([3]; human, in vivo, 60 mg, edoxaban alone, day 4 (treatment 1), mean ± SD): 1990 ± 403 ng·h/mL
AUC ([3]; human, in vivo, 60 mg, edoxaban day 4 after switching from dabigatran etexilate (treatment 3), mean ± SD): 1680 ± 475 ng·h/mL
AUC ([3]; human, in vivo, 60 mg, edoxaban day 4 after switching from rivaroxaban (treatment 2), mean ± SD): 1740 ± 353 ng·h/mL
Cmax ([3]; human, in vivo, 60 mg, edoxaban 60 mg on day 4 after switching from dabigatran etexilate 150 mg twice daily for 3 days (treatment 3), mean ± SD): 280 ± 124 ng/mL
Cmax ([3]; human, in vivo, 60 mg, edoxaban 60 mg on day 4 after switching from rivaroxaban 20 mg once daily for 3 days (treatment 2), mean ± SD): 288 ± 113 ng/mL
Cmax ([3]; human, in vivo, 60 mg, edoxaban 60 mg once daily alone, day 1 (treatment 1), mean ± SD): 309 ± 97.2 ng/mL
Cmax ([3]; human, in vivo, 60 mg, edoxaban 60 mg once daily alone, day 4 (treatment 1), mean ± SD): 303 ± 87.7 ng/mL
concentration at 1 day ([3]; human, in vivo, 60 mg, C trough, edoxaban alone, day 1 (treatment 1), mean ± SD): 14 ± 5.44 ng/mL
concentration at 4 day ([3]; human, in vivo, 60 mg, C trough, edoxaban alone, day 4 (treatment 1), mean ± SD): 15.5 ± 3.98 ng/mL
concentration at 4 day ([3]; human, in vivo, 60 mg, C trough, edoxaban day 4 after switching from dabigatran etexilate (treatment 3), mean ± SD): 12.8 ± 4.13 ng/mL
concentration at 4 day ([3]; human, in vivo, 60 mg, C trough, edoxaban day 4 after switching from rivaroxaban (treatment 2), mean ± SD): 13.4 ± 5 ng/mL

CCCCCCOC(=O)NC(=N)c1ccc(NCc2nc3cc(C(=O)N(CCC(=O)OCC)c4ccccn4)ccc3n2C)cc1 [dabigatran etexilate]
tolerability (Safety assessment): well tolerated

O=C(NC[C@H]1CN(c2ccc(N3CCOCC3=O)cc2)C(=O)O1)c1ccc(Cl)s1 [rivaroxaban]
tolerability (Safety assessment): well tolerated
